The target in this test is T1, HDAC6 enzyme (Homo sapiens, UniProt Q9UBN7).
T1 construct: transducing full length HDAC6 gene into Sf-9 insect cells; GST; purchased SignalChem; host or cells: Sf-9 insect cells
T1 sequence (Q9UBN7 1-1215): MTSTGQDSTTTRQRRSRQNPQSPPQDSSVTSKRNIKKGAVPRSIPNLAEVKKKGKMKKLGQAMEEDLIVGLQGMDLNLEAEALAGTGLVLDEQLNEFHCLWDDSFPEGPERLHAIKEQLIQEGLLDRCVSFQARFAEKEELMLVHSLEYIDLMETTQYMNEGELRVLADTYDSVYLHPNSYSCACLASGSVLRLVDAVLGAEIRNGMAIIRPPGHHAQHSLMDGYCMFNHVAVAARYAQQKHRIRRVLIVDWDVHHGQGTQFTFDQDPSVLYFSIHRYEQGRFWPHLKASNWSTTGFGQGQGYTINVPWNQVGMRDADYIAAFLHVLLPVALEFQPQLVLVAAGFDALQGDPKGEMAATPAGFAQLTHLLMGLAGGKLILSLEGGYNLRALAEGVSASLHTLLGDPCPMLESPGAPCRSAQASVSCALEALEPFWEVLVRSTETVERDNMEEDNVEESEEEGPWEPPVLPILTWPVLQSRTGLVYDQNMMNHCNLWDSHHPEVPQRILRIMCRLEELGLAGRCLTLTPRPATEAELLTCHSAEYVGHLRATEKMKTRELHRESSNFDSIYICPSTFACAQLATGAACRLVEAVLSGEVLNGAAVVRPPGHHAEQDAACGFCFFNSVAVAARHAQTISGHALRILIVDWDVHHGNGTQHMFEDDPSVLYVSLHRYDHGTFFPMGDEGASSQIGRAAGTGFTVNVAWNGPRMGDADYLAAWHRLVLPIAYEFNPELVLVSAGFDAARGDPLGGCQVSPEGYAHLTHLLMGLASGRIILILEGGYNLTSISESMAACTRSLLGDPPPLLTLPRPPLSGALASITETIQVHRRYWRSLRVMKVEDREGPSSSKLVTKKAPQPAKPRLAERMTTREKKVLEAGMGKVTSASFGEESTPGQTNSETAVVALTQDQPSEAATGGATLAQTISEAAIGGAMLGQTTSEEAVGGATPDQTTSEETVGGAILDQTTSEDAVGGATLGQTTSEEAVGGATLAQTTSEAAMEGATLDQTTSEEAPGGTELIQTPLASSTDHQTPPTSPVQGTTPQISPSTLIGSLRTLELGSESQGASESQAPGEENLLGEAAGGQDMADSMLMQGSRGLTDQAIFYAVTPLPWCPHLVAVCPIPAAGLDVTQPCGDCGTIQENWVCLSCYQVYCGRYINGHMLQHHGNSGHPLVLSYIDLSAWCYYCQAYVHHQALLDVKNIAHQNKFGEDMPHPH
Kind of test: HDAC6 enzyme inhibitory activity (HDAC-Glo I/II Assay kit). It is filed as biochemical. The settings on record: 10 μM, wells without enzyme = 100% inhibition; for inhibition at 10 µM: read-out: HDAC6 inhibitory rate (%) (10 μM). Summed up: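 Luminescence read-out after 20 min reaction with HDAC-Glo substrate-developer, following 60 min room-temperature preincubation of compound with Sf-9-expressed, GST-purified full-length enzyme. Inhibition is relative to no-enzyme wells set as 100%.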

Data on 22 compounds can be found in patent US10435399B2, “HDAC6 inhibitory heterocyclic compound” (TAKEDA PHARMACEUTICAL COMPANY LIMITED, priority 2017, dated 2019).

Consider `CC(C)(C(=O)N[C@H]1[C@H](N2Cc3ncc(-c4nnc(C(F)F)o4)cc3C2=O)CCCC1(F)F)C(F)(F)F` [Example 605, N-((1S,6R)-6-(3-(5-(difluoromethyl)-1,3,4-oxadiazol-2-yl)-5-oxo-5,7-dihydro-6H-pyrrolo[3,4-b]pyridin-6-yl)-2,2-difluorocyclohexyl)-3,3,3-trifluoro-2,2-dimethylpropanamide], for which the inhibition at 10 µM amounted to 99%.
In the case of `O=C1c2cc(-c3nnc(C(F)F)o3)cnc2CN1C1CCCC(F)(F)[C@H]1NC(=O)C1(C(F)(F)F)CC1` (stereo partly shown) [Example 606], the inhibition at 10 µM amounted to 99%.
Regarding `CC(C)(CF)OC(=O)N[C@H]1[C@H](N2Cc3ncc(-c4nnc(C(F)F)o4)cc3C2=O)CCCC1(F)F` [Example 607, 1-fluoro-2-methylpropan-2-yl ((1S,6R)-6-(3-(5-(difluoromethyl)-1,3,4-oxadiazol-2-yl)-5-oxo-5,7-dihydro-6H-pyrrolo[3,4-b]pyridin-6-yl)2,2-difluorocyclohexyl)carbamate], the inhibition at 10 µM came to 99%.
Still for that read-out and setting: next, `CC(C)(OC(=O)N[C@H]1[C@H](N2Cc3ncc(-c4nnc(C(F)F)o4)cc3C2=O)CCCC1(F)F)C(F)F` [Example 608, 1,1-difluoro-2-methylpropan-2-yl ((1S,6R)-6-(3-(5-(difluoromethyl)-1,3,4-oxadiazol-2-yl)-5-oxo-5,7-dihydro-6H-pyrrolo[3,4-b]pyridin-6-yl)-2,2-difluorocyclohexyl)carbamate]: 99%; `Cn1cc(C2CCCCN2N2Cc3ccc(-c4nnc(C(F)F)o4)cc3C2=O)cn1` (stereo not shown) [Example 609, 6-(5-(difluoromethyl)-1,3,4-oxadiazol-2-yl)-2-(2-(1-methyl-1H-pyrazol-4-yl)piperidin-1-yl)isoindolin-1-one]: 99%.
`O=C1c2cc(-c3nnc(C(F)F)o3)ccc2CN1N1CCC(F)(F)CC1c1ccc(F)cn1` (stereo not drawn) [Example 610, 2-(4,4-Difluoro-2-(5-fluoropyridin-2-yl)piperidin-1-yl)-6-(5-(difluoromethyl)-1,3,4-oxadiazol-2-yl)isoindolin-1-one (Optical Isomer)]: the “HDAC6 inhibitory rate (%) (10 μM)” value is 99%.
As for `CC(=O)N1CCC(C2CCCCN2N2Cc3ccc(-c4nnc(C(F)F)o4)cc3C2=O)CC1` (stereo not shown) [Example 611, 2-(1′-acetyl-2,4′-bipiperidin-1-yl)-6-(5-(difluoromethyl)-1,3,4-oxadiazol-2-yl)isoindolin-1-one], the inhibition at 10 µM was 101%.
As to `O=C1c2cc(-c3nnc(C(F)F)o3)ccc2CN1N1CCC(F)(F)CC1c1ccc(F)cn1` (stereo not drawn) [Example 612, 2-(4,4-Difluoro-2-(5-fluoropyridin-2-yl)piperidin-1-yl)-6-(5-(difluoromethyl)-1,3,4-oxadiazol-2-yl)isoindolin-1-one (Optical Isomer)], the “HDAC6 inhibitory rate (%) (10 μM)” value is 99%.
With `O=C(N[C@H]1[C@H](N2Cc3ncc(-c4nnc(C(F)F)o4)cc3C2=O)CCCC1(F)F)C(C(F)(F)F)C(F)(F)F` [Example 613, N-((1S,6R)-6-(3-(5-(difluoromethyl)-1,3,4-oxadiazol-2-yl)-5-oxo-5,7-dihydro-6H-pyrrolo[3,4-b]pyridin-6-yl)-2,2-difluorocyclohexyl)-3,3,3-trifluoro-2-(trifluoromethyl)propanamide], the inhibition at 10 µM is 99%.
On to `Cc1ccc(C2CC(F)(F)CCN2N2Cc3ccc(-c4nnc(C(F)F)o4)cc3C2=O)nc1` (stereo not drawn) [Example 614, 6-(5-(difluoromethyl)-1,3,4-oxadiazol-2-yl)-2-(4,4-difluoro-2-(5-methylpyridin-2-yl)piperidin-1-yl)isoindolin-1-one (optical isomer)], for which the “HDAC6 inhibitory rate (%) (10 μM)” value worked out at 99%.
On the same count and under the same terms, to `Cc1ccc(C2CC(F)(F)CCN2N2Cc3ccc(-c4nnc(C(F)F)o4)cc3C2=O)nc1` (stereo not drawn) [Example 615, 6-(5-(difluoromethyl)-1,3,4-oxadiazol-2-yl)-2-(4,4-difluoro-2-(5-methylpyridin-2-yl)piperidin-1-yl)isoindolin-1-one (optical isomer)] belongs 99%.
For the compound `O=C1c2cc(-c3nnc(C(F)F)o3)ccc2CN1c1cccn2ccnc12` [Example 616, 6-(5-(difluoromethyl)-1,3,4-oxadiazol-2-yl)-2-(imidazo[1,2-a]pyridin-8-yl)isoindolin-1-one], the inhibition at 10 µM turned out to be 89%.
Regarding `O=C1c2cc(-c3nnc(C(F)F)o3)ccc2CN1N1CCOCC1c1ccc(F)cc1` (stereo not shown) [Example 617, 6-(5-(difluoromethyl)-1,3,4-oxadiazol-2-yl)-2-(3-(4-fluorophenyl)morpholin-4-yl)isoindolin-1-one], the inhibition at 10 µM stood at 100%.
Same read-out and setting: next, `O=C(N[C@@H]1[C@H](N2Cc3ccc(-c4nnc(C(F)F)o4)cc3C2=O)CCCC1(F)F)OCc1ccccc1` [Example 619, benzyl ((1R,6R)-6-(6-(5-(difluoromethyl)-1,3,4-oxadiazol-2-yl)-1-oxo-1,3-dihydro-2H-isoindol-2-yl)-2,2-difluorocyclohexyl)carbamate]: 100%; `N[C@@H]1[C@H](N2Cc3ccc(-c4nnc(C(F)F)o4)cc3C2=O)CCCC1(F)F` [Example 621, 2-((1R,2R)-2-amino-3,3-difluorocyclohexyl)-6-(5-(difluoromethyl)-1,3,4-oxadiazol-2-yl)isoindolin-1-one]: 88%; `O=C(NCC(F)(F)C(F)(F)F)C1CC(F)(F)CCN1N1Cc2ccc(-c3nnc(C(F)F)o3)cc2C1=O` (stereo not shown) [Example 622, 1-(6-(5-(difluoromethyl)-1,3,4-oxadiazol-2-yl)-1-oxo-1,3-dihydro-2H-isoindol-2-yl)-4,4-difluoro-N-(2,2,3,3,3-pentafluoropropyl)piperidine-2-carboxamide]: 100%.
Take `O=C(NCC(F)F)C1CC(F)(F)CCN1N1Cc2ccc(-c3nnc(C(F)F)o3)cc2C1=O` (stereo not shown) [Example 623, N-(2,2-difluoroethyl)-1-(6-(5-(difluoromethyl)-1,3,4-oxadiazol-2-yl)-1-oxo-1,3-dihydro-2H-isoindol-2-yl)-4,4-difluoropiperidine-2-carboxamide]: the inhibition at 10 µM was determined as 100%.
Regarding `O=C1c2cc(-c3nnc(C(F)F)o3)ccc2CN1[C@@H]1CCCC(F)(F)[C@@H]1NC(=O)C(F)(F)C(F)(F)F` [Example 625, N-((1R,6R)-6-(6-(5-(difluoromethyl)-1,3,4-oxadiazol-2-yl)-1-oxo-1,3-dihydro-2H-isoindol-2-yl)-2,2-difluorocyclohexyl)-2,2,3,3,3-pentafluoropropanamide], the inhibition at 10 µM stood at 101%.
Still for that read-out and setting: to `CC(F)(F)C(=O)N[C@@H]1[C@H](N2Cc3ccc(-c4nnc(C(F)F)o4)cc3C2=O)CCCC1(F)F` [Example 626, N-((1R,6R)-6-(6-(5-(difluoromethyl)-1,3,4-oxadiazol-2-yl)-1-oxo-1,3-dihydro-2H-isoindol-2-yl)-2,2-difluorocyclohexyl)-2,2-difluoropropanamide] belongs 100%.
With `COC(=O)N1CCC[C@@H](N2Cc3ccc(-c4nnc(C(F)F)o4)cc3C2=O)[C@H]1c1ccc(F)cc1` [Example 627, methyl (2R,3R)-3-(6-(5-(difluoromethyl)-1,3,4-oxadiazol-2-yl)-1-oxo-1,3-dihydro-2H-isoindol-2-yl)-2-(4-fluorophenyl)piperidine-1-carboxylate], the inhibition at 10 µM was 100%.
On the same count and under the same terms, to `O=C1c2cc(-c3nnc(C(F)F)o3)ccc2CN1[C@@H]1CCCC(F)(F)[C@@H]1NC(=O)C(F)(F)C(F)F` [Example 628, N-((1R,6R)-6-(6-(5-(difluoromethyl)-1,3,4-oxadiazol-2-yl)-1-oxo-1,3-dihydro-2H-isoindol-2-yl)-2,2-difluorocyclohexyl)-2,2,3,3-tetrafluoropropanamide] belongs 100%.
Same read-out and setting: to `O=C(N[C@@H]1[C@H](N2Cc3ccc(-c4nnc(C(F)F)o4)cc3C2=O)CCCC1(F)F)C(F)F` [Example 629, N-((1R,6R)-6-(6-(5-(difluoromethyl)-1,3,4-oxadiazol-2-yl)-1-oxo-1,3-dihydro-2H-isoindol-2-yl)-2,2-difluorocyclohexyl)-2,2-difluoroacetamide] belongs 100%.
